From ChEMBL document CHEMBL1142040, “Melanocortin subtype-4 receptor agonists containing a piperazine core with substituted aryl sulfonamides” (Bioorg Med Chem Lett, 2005)
Where “and” joins values, the source holds several entries; their conditions need not be identical. Equal values may be shown once.

Tests used:
Melanocortin receptor 4 [1] = target: T1, Melanocortin receptor 4 (Homo sapiens, UniProt P32245); test: In vitro inhibitory concentration required against melanocortin 4 receptor using [125I]NDP-MSH as radioligand
Melanocortin receptor 4 [2] = target: T1, Melanocortin receptor 4; test: Effective concentration determined against melanocortin-4 receptor; assay type: functional
[3] = Bioavailability concentration of compound was determined in mice; assay type: ADME, organism-based; conditions: mouse, in vivo
[4] = Maximum plasma level concentration was determined in mice; assay type: ADME, organism-based; conditions: mouse
[5] = Tmax of compound was determined in mice; assay type: ADME; conditions: mouse, in vivo
[6] = Brain concentration of compound was determined in mice; assay type: ADME; conditions: mouse, in vivo
Melanocortin receptor 3 = Melanocortin receptor 3 (Homo sapiens, UniProt P41968); test: Effective concentration determined against melanocortin-3 receptor; assay type: functional
Melanocortin receptor 5 = Melanocortin receptor 5 (Homo sapiens, UniProt P33032); test: Effective concentration determined against melanocortin-5 receptor; assay type: functional
[7] = Clearance value of compound was determined in mice; assay type: ADME, organism-based; conditions: mouse, in vivo
[8] = Half life of compound was determined in mice; assay type: ADME; conditions: mouse, in vivo
[9] = Volume of distribution of compound was determined in mice; assay type: ADME, organism-based; conditions: mouse, in vivo
[10] = target: Melanocortin receptor (M4 and M5) (Homo sapiens) (UniProt P32245+P33032); test: Selectivity for melanocortin 4 receptor compared to melanocortin 5 receptor in vitro; assay type: functional
Sequence of Melanocortin receptor (M4 and M5) (Homo sapiens) (P32245 whole entry, looked up): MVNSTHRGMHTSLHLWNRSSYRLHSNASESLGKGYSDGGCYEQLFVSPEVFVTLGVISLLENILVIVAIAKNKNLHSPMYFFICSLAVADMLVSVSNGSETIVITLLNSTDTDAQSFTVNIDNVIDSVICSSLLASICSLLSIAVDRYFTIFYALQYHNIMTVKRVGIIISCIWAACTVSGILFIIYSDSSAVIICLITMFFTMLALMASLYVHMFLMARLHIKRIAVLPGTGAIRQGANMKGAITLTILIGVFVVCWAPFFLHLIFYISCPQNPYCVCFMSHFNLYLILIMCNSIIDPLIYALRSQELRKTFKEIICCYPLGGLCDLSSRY
Sequence of Melanocortin receptor (M4 and M5) (Homo sapiens) (P33032 whole entry, looked up): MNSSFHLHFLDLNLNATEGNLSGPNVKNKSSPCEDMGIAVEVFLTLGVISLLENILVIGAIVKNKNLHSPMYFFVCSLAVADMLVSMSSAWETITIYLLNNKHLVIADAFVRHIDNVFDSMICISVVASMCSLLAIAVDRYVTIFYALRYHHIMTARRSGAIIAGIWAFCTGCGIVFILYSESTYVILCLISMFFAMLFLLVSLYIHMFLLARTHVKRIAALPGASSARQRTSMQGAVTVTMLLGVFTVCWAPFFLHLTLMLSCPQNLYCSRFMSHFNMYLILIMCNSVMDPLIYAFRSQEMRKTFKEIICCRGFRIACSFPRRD

Sequence of Melanocortin receptor 3 (P41968 whole entry): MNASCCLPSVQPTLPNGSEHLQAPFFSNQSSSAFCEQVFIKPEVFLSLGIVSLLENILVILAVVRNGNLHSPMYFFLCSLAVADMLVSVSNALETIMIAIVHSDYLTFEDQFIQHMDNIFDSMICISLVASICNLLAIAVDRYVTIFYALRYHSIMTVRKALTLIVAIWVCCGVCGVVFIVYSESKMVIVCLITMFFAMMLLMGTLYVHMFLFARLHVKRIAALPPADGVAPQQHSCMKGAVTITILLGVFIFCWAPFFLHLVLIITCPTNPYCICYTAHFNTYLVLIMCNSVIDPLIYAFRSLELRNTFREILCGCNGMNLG
Sequence of Melanocortin receptor 5 (P33032 whole entry): as the sequence (P33032 whole entry, looked up) above
T1 sequence (P32245 whole entry): as the sequence (P32245 whole entry, looked up) above

| Compound | IC50 (Melanocortin receptor 4 [1]) [nM] | EC50 (Melanocortin receptor 4 [2]) | further results |
| --- | --- | --- | --- |
| CN1CCC(C(=O)N[C@H](Cc2ccc(Cl)cc2)C(=O)N2CCN(c3ccccc3N(CC3CC3)S(C)(=O)=O)CC2)CC1 | 120 | 12 nM |  |
| CCCN(c1ccccc1N1CCN(C(=O)[C@@H](Cc2ccc(Cl)cc2)NC(=O)[C@@H]2Cc3ccccc3CN2)CC1)S(C)(=O)=O |  | 0.44 nM | bioavailability [3]: 20%; Cmax [4]: 1400 ng/mL; Tmax [5]: 15 min; Cbrain [6]: 130 ng/g; EC50 (Melanocortin receptor 3): > 10000 nM; EC50 (Melanocortin receptor 5): 210 nM; Cl/F [7]: 30 mL/min/kg; T1/2 [8]: 26.4 min; V2/F [9]: 19 L/kg |
| CS(=O)(=O)Nc1ccccc1N1CCN(C(=O)[C@@H](Cc2ccc(Cl)cc2)NC(=O)[C@@H]2Cc3ccccc3CN2)CC1 | 340 | 11 nM | Selectivity [10]: 21; EC50 (Melanocortin receptor 3): > 10000 nM; EC50 (Melanocortin receptor 5): 230 nM |
| CC(C)CCN1CC(C(=O)N[C@H](Cc2ccc(Cl)cc2)C(=O)N2CCN(c3ccccc3N(CC3CC3)S(C)(=O)=O)CC2)C1 | 83 | 49 nM |  |
| CN(c1ccccc1N1CCN(C(=O)[C@@H](Cc2ccc(Cl)cc2)NC(=O)[C@@H]2Cc3ccccc3CN2)CC1)S(C)(=O)=O | 210 | 4 nM |  |
| CS(=O)(=O)N(CC1CC1)c1ccccc1N1CCN(C(=O)[C@@H](Cc2ccc(Cl)cc2)NC(=O)c2cc3ccccc3cn2)CC1 | 410 | 18 nM |  |
| CS(=O)(=O)N(CC1CC1)c1ccccc1N1CCN(C(=O)[C@@H](Cc2ccc(Cl)cc2)NC(=O)c2cnc3ccccc3c2)CC1 | 94 | 60 nM |  |
| O=C(N[C@H](Cc1ccc(Cl)cc1)C(=O)N1CCN(c2ccccc2NS(=O)(=O)c2ccccc2)CC1)[C@@H]1Cc2ccccc2CN1 | 730 | 120 nM |  |
| CCN1CCC(C(=O)N[C@H](Cc2ccc(Cl)cc2)C(=O)N2CCN(c3ccccc3N(CC3CC3)S(C)(=O)=O)CC2)CC1 | 110 | 8.6 nM |  |
| CS(=O)(=O)N(CC1CC1)c1ccccc1N1CCN(C(=O)[C@@H](Cc2ccc(Cl)cc2)NC(=O)c2ccc3ncccc3c2)CC1 | 29 | 27 nM |  |
| CS(=O)(=O)N(CC1CC1)c1ccccc1N1CCN(C(=O)[C@@H](Cc2ccc(Cl)cc2)NC(=O)[C@@H]2Cc3ccccc3CN2)CC1 | 61 | 0.58 nM and 0.6 nM | Selectivity [10]: 170; EC50 (Melanocortin receptor 3): 7000 nM; EC50 (Melanocortin receptor 5): 170 nM |
| O=C(N[C@H](Cc1ccc(Cl)cc1)C(=O)N1CCN(c2ccccc2NS(=O)(=O)Cc2ccccc2)CC1)[C@@H]1Cc2ccccc2CN1 | 720 | 65 nM |  |
| CS(=O)(=O)N(CCN)c1ccccc1N1CCN(C(=O)[C@@H](Cc2ccc(Cl)cc2)NC(=O)[C@@H]2Cc3ccccc3CN2)CC1 | 35 | < 0.1 nM | Selectivity [10]: 79; EC50 (Melanocortin receptor 3): > 10000 nM; EC50 (Melanocortin receptor 5): 79 nM |
| CS(=O)(=O)N(CC1CC1)c1ccccc1N1CCN(C(=O)[C@@H](Cc2ccc(Cl)cc2)NC(=O)c2ccc3ccccc3c2)CC1 | 280 | 63 nM |  |
| CS(=O)(=O)N(CC1CC1)c1ccccc1N1CCN(C(=O)[C@@H](Cc2ccc(Cl)cc2)NC(=O)C2CN(C3CCCCC3)C2)CC1 | 67 | 1.8 nM |  |
